Laboratory results from US20240329043A1, “METHOD FOR STRATIFICATION AND TREATMENT OF MULTIPLE SCLEROSIS” (Universität Zurich, priority 2021, published 2024).

How the values were obtained:
[1] = tested on: CSF-infiltrating CD4+ T cells from MS patients; details: peptide 10 μM, 105 MS patients; for Positive wells % Proliferation: quadruplicates (420 wells per peptide), well positive if SI≥2, 72 h; for Positive patients % Proliferation: patient positive if mean SI of four wells ≥2 and at least 3 of four wells SI≥2
Description: CSF-infiltrating CD4+ T cells were expanded with PHA in a single round of stimulation using a previously reported protocol aimed to reduce TCR repertoire bias (Planas et al., 2008, Sci Transl Med, 10(462):eaat4301). 6×10^4 PHA-expanded CSF-infiltrating CD4^+ T cells were seeded in quadruplicate with 2×10^5 irradiated autologous PBMCs as antigen presenting cells and stimulated with peptides (Table 2) at a final concentration of 10 μM and with a T Cell Activation Kit (anti-CD3, anti-CD28, anti-CD2 beads) (Miltenyi Biotec) as positive control.
(§1) Proliferation was measured 72 h after stimulation using 3H-thymidine (Hartmann Analytic, Braunschweig, Germany) as previously reported (Planas et al., 2018). The stimulation index of single wells (SI) was calculated as follows: SI=(cpm well with peptide)/(Mean cpm wells without peptide). A well was considered positive if SI≥2.

[2] = tested on: CSF-infiltrating CD4+ T cells from MS patients; details: peptide 10 μM; 105 MS patients, quadruplicates; well positive if IFN-γ≥20 pg/ml
Description: 6×10^4 PHA-expanded CSF-infiltrating CD4^+ T cells were seeded in quadruplicate with 2×10^5 irradiated autologous PBMCs as antigen presenting cells and stimulated with peptides (Table 2) at a final concentration of 10 μM and with a T Cell Activation Kit (anti-CD3, anti-CD28, anti-CD2 beads) (Miltenyi Biotec) as positive control.
(§2) Release of IFN-γ was measured using the ELISA MAX™ Deluxe Set Human IFN-γ (Biolegend, San Diego, CA, USA) according to the manufacturer's instructions. A well was considered positive if IFN-γ≥20 pg/ml and a patient was considered positive for a peptide if the mean IFN-γ of the four wells was ≥20 pg/ml and at least 3 of the 4 wells were positive.

[3] = tested on: CSF-infiltrating CD4+ T cells from MS patients; assay: Reactivity of CSF-infiltrating CD4+ T cells by proliferation and/or IFN-γ release taken together (responder classification, comparison of readouts); details: of 105 MS patients; main or only reactivity in proliferation and/or IFN-γ release
Description: PBMCs were freshly isolated using Ficoll (Eurobio, Germany) density gradient centrifugation. CSF-infiltrating CD4+ T cells were expanded with PHA in a single round of stimulation using a previously reported protocol aimed to reduce TCR repertoire bias (Planas et al., 2008, Sci Transl Med, 10(462):eaat4301). 6×10^4 PHA-expanded CSF-infiltrating CD4^+ T cells were seeded in quadruplicate with 2×10^5 irradiated autologous PBMCs as antigen presenting cells and stimulated with peptides (Table 2) at a final concentration of 10 μM and with a T Cell Activation Kit (anti-CD3, anti-CD28, anti-CD2 beads) (Miltenyi Biotec) as positive control.
as §1, §2

Row | Sequence | Positive wells % Proliferation [1] [%] | Positive patients % Proliferation [1] [%] | Positive wells % IFNγ release [2] [%] | Patients classified as responders to the peptide(s) [3] [%]
1 | AQGTLSKIFKLGGRDSRSGSPMARR (listed as Homo sapiens) [MBP (146-170)] | 0.72 | 0.00 | 3.86 | 
2 | EEDEVSIKEAAEAVV (listed as Homo sapiens) [GDP-L-FS (246-260)] | 6.90 | 4.76 | 8.85 | 
3 | FRFTPFKQAVKETCA (listed as Homo sapiens) [GDP-L-FS (296-310)] | 6.43 | 4.76 | 12.65 | 
4 | GQFRVIGPRHPIRALVGDEV (listed as Homo sapiens) [MOG (1-20)] | 1.20 | 0.00 | 4.58 | 
5 | HCLGKWLGHPDKFVGI (listed as Homo sapiens) [PLP (139-154)] | 1.92 | 0.96 | 3.86 | 
6 | KYLATASTMDHARHGFLPRH (listed as Homo sapiens) [MBP (13-32)] | 0.72 | 0.00 | 4.34 | 
7 | LSRFSWGAEGQRPGFGYGG (listed as Homo sapiens) [MBP (111-129)] | 1.20 | 0.96 | 6.75 | 
8 | MEVGWYRPPFSRVVHLYRNGK (listed as Homo sapiens) [MOG (35-55)] | 3.61 | 1.92 | 13.49 | 10.4
9 | PHNSNFGYSYAKRMI (listed as Homo sapiens) [GDP-L-FS (136-150)] | 7.14 | 5.71 | 8.35 | 
10 | TAQTRALFEKVQPTH (listed as Homo sapiens) [GDP-L-FS (51-65)] | 5.48 | 3.80 | 7.16 | 
11 | YGCTFTAVIPTNVFG (listed as Homo sapiens) [GDP-L-FS (161-175)] | 7.38 | 6.66 | 6.92 | 
